Patent US20100197650A1, “COMPOSITIONS AND METHODS OF TREATMENT COMPRISING CEFTAROLINE” (FOREST LABORATORIES HOLDINGS LTD., priority 2008, published 2010)
Converted amounts (≈) assume the structure as drawn. Like-named read-outs stand apart in the source and are kept apart here. Marks after values point to notes of the source that are not given here.

How the values were obtained:
[1] = system: ESBL-producing E. coli; assay: Susceptibility testing MIC/MBC, broth microdilution (Example 2); type: cell-based, Escherichia coli; conditions: for MBC range / MIC range: E. coli (10) clinical isolates; for MBC / MIC: Escherichia coli; for MBC: read-out: MBC; for MIC: read-out: MIC
[2] = system: AmpC-derepressed Enterobacter cloacae; assay: microbe, parasite or virus in culture; type: cell-based; conditions: for MBC range / MIC range: E. cloacae (10) clinical isolates; for MBC / MIC: Enterobacter cloacae
[3] = system: Streptococcus pyogenes; assay: MIC, broth microdilution (Example 1); type: cell-based; conditions: Streptococcus pyogenes, read-out: MIC
Description: (§1) Stock solutions of all antibacterial agents were prepared at 80-fold (80×) the final target concentration in the appropriate solvent and the solution was allowed to stand for 60 minutes. All antibacterial agents were in solution under these conditions. The final drug concentrations in the FIC assay plates were set to bracket the MIC value of each agent for each test organism, unless the strain was totally resistant to the test agent.
(§2) The test organisms were originally received from clinical sources, or from the American Type Culture Collection. Upon receipt, the isolates were streaked onto the appropriate growth medium: Chocolate Agar for H. influenzae, Tryptic Soy Agar II (Becton Dickinson, Sparks, Md.) supplemented with 5% defibrinated sheep blood for streptococci, and unsupplemented Tryptic Soy Agar II for all other organisms. Colonies were harvested from these plates and a cell suspension was prepared in Tryptic Soy Broth (Becton Dickinson) containing cryoprotectant. Aliquots were then frozen at −80° C. On the day prior to assay, the frozen seeds of the organisms to be tested in that session were thawed and streaked for isolation onto the appropriate agar medium plates and incubated overnight at 35° C.
(§3) The test medium for H. influenzae was Haemophilus Test Medium. Streptococci were tested in Mueller Hinton II Broth (Becton Dickinson; Lot 6235472) supplemented with 2% lysed horse blood (Cleveland Scientific, Bath, Ohio; Lot H88621). All other organisms were tested in Mueller Hinton II Broth (Becton Dickinson, Lot 6235472). The broth was prepared at 1.05× normal weight/volume to offset the 5% volume of the drugs in the final test plates.
(§4) In order to select the proper test concentrations for each drug combination, minimal inhibitory concentration (MIC) values were first determined using the broth microdilution method previously described (Clinical and Laboratory Standards Institute. Methods for Dilution Antimicrobial Susceptibility Tests for Bacteria That Grow Aerobically; Approved Standard—Seventh Edition. Clinical and Laboratory Standards Institute document M7-A7 [ISBN 1-56238-587-9]. Clinical and Laboratory Standards Institute, 940 West Valley Road, Suite 1400, Wayne, Pa. 19087-1898 USA, 2006).
(§5) The wells of standard 96-well microdilution plates (Falcon 3918) were filled with 150 μL of 100% DMSO using the Multidrop 384. These plates were used to prepare the drug “mother plates” which provided the serial drug dilutions for the drug combination plates. The Biomek 2000 was used to transfer 150 μl of each stock solution (80×) from the wells in Column 1 of a deep well plate to the corresponding wells in Column 1 of the mother plate and to make seven 2-fold serial dilutions. Two mother plates, one for each drug, were combined to form a “checkerboard” pattern by transfer of equal volumes (using a multi-channel pipette) to the drug combination plate. Row H and Column 8 each contained serial dilutions of one of the agents alone for determination of the MIC.
(§6) Plates were stacked 3 high, covered with a lid on the top plate, placed in plastic bags, and incubated at 35° C. for approximately 20 hours. Following incubation, the microplates were removed from the incubator and viewed from the bottom using a ScienceWare plate viewer. Prepared reading sheets were marked for the MIC of drug 1 (row H), the MIC of drug 2 (column 8) and the wells of the growth-no growth interface.

[4] = system: Escherichia coli; assay: MIC, broth microdilution (Example 1); type: cell-based
Description: as §1, §2, §3, §4, §5, §6

[5] = system: Haemophilus influenzae; assay: MIC, broth microdilution (Example 1); type: cell-based; conditions: Haemophilus influenzae, read-out: MIC
Description: as §1, §2, §3, §4, §5, §6

[6] = system: Klebsiella pneumoniae; assay: MIC, broth microdilution (Example 1); type: cell-based
Description: as §1, §2, §3, §4, §5, §6

[7] = system: Streptococcus pneumoniae; assay: MIC, broth microdilution (Example 1); type: cell-based
Description: as §1, §2, §3, §4, §5, §6

[8] = system: ESBL-producing Klebsiella pneumoniae; assay: Susceptibility testing MIC/MBC, broth microdilution (Example 2); type: cell-based; conditions: for MBC / MIC: Klebsiella pneumoniae; for MBC: read-out: MBC; for MIC: read-out: MIC
[9] = system: P. aeruginosa; assay: as above; type: cell-based, Pseudomonas aeruginosa; conditions: for MBC / MIC: Pseudomonas aeruginosa; for MBC: read-out: MBC; for MIC: read-out: MIC
[10] = system: clinical Enterobacteriacae and P. aeruginosa isolates; assay: Susceptibility testing (Example 2), summary over species; type: cell-based; conditions: Pseudomonas aeruginosa; Enterobacteriacae (30 isolates); read-out: MIC values
[11] = system: Staphylococcus aureus; assay: MIC, broth microdilution (Example 1); type: cell-based
Description: as §1, §2, §3, §4, §5, §6

[12] = system: Pseudomonas aeruginosa; assay: MIC, broth microdilution (Example 1); type: cell-based
Description: as §1, §2, §3, §4, §5, §6

[13] = P. aeruginosa (20) clinical isolates
[14] = K. pneumonia (10) clinical isolates

`C[C@H]1COc2c(N3CCN(C)CC3)c(F)cc3c(=O)c(C(=O)O)cn1c23` [Levofloxacin] showed an MBC range [1] of 0.06 to 32 µg/mL, an MIC range [1] of 0.03 to 32 µg/mL and an MBC ([1]; E. coli isolate no. 5401) of 32 µg/mL (≈ 88.6 µM). For the same molecule, the MIC ([1]; E. coli isolate no. 5401) was 32 µg/mL (≈ 88.6 µM), the MBC ([1]; E. coli isolate no. 5411) was 16 µg/mL (≈ 44.3 µM) and the MIC ([1]; E. coli isolate no. 5411) was 8 µg/mL (≈ 22.1 µM). The MBC range [2] was 0.03 to 128 µg/mL, the MIC range [2] was 0.03 to 64 µg/mL and the MBC ([2]; E. cloacae isolate no. 4073) was 0.06 µg/mL (≈ 0.166 µM). For the same molecule, the MIC ([2]; E. cloacae isolate no. 4073) was 0.06 µg/mL (≈ 0.166 µM), the MBC ([2]; E. cloacae isolate no. 5420) was 0.06 µg/mL (≈ 0.166 µM) and the MIC ([2]; E. cloacae isolate no. 5420) was 0.06 µg/mL (≈ 0.166 µM). The MIC ([3]; S. pyogenes 0717) was 0.5 µg/mL, the MIC ([3]; S. pyogenes 0722) was 0.5 µg/mL and the MIC ([4]; E. coli 2273 (ESBL)) was >4^a μg/mL. The MIC ([4]; Escherichia coli, E. coli 1587, read-out: MIC) was 0.06 µg/mL, the MIC ([4]; Escherichia coli, E. coli 2273 (ESBL), read-out: MIC) was > 4 µg/mL and the MIC ([5]; H. influenzae 1224) was 0.015 µg/mL. The MIC ([5]; H. influenzae 2797 (BLNAR)) was 0.015 µg/mL, the MIC ([5]; H. influenzae 2798 (BLNAR)) was 0.015 µg/mL and the MIC ([5]; H. influenzae 2799 (BLNAR)) was 0.015 µg/mL. For the same molecule, the MIC ([6]; K. pneumoniae 1461) was >4^a μg/mL, the MIC ([6]; Klebsiella pneumoniae, K. pneumoniae 1340, read-out: MIC) was 0.06 µg/mL and the MIC ([6]; Klebsiella pneumoniae, K. pneumoniae 1461, read-out: MIC) was > 4 µg/mL. The MIC ([7]; S. pneumoniae 0866 (PSSP)) was 1 ^ μg/mL, the MIC ([7]; S. pneumoniae 0869 (PSSP)) was 1 ^ μg/mL and the MIC ([7]; S. pneumoniae 0880 (PRSP)) was >4^a μg/mL. The MIC ([7]; S. pneumoniae 0884 (PRSP)) was 1 ^ μg/mL, the MIC ([7]; Streptococcus pneumoniae, PRSP, S. pneumoniae 0880 (PRSP), read-out: MIC) was > 4 µg/mL and the MIC ([7]; Streptococcus pneumoniae, PRSP, S. pneumoniae 0884 (PRSP), read-out: MIC) was 1 µg/mL. It also gave an MIC ([7]; Streptococcus pneumoniae, S. pneumoniae 0866 (PSSP), read-out: MIC) of 1 µg/mL, an MIC ([7]; Streptococcus pneumoniae, S. pneumoniae 0869 (PSSP), read-out: MIC) of 1 µg/mL and an MBC ([8]; K. pneumonia isolate no. 5427) of 2 µg/mL (≈ 5.53 µM). For the same molecule, the MIC ([8]; K. pneumonia isolate no. 5427) was 0.25 µg/mL (≈ 0.692 µM), the MBC ([8]; K. pneumonia isolate no. 5436) was 4 µg/mL (≈ 11.1 µM) and the MIC ([8]; K. pneumonia isolate no. 5436) was 4 µg/mL (≈ 11.1 µM). It also gave an MIC range [9, 13] of 0.25 to 32 µg/mL, an MBC ([9]; P. aeruginosa isolate no. 796) of 2 µg/mL (≈ 5.53 µM) and an MIC ([9]; P. aeruginosa isolate no. 796) of 1 µg/mL (≈ 2.77 µM). For the same molecule, the MBC ([9]; P. aeruginosa isolate no. 956) was 1 µg/mL (≈ 2.77 µM), the MIC ([9]; P. aeruginosa isolate no. 956) was 0.5 µg/mL (≈ 1.38 µM) and the MBC ([9]; P. aeruginosa isolate no. 1019) was 1 µg/mL (≈ 2.77 µM). It also gave an MIC ([9]; P. aeruginosa isolate no. 1019) of 0.5 µg/mL (≈ 1.38 µM), an MBC ([9]; P. aeruginosa isolate no. 1037) of 0.5 µg/mL (≈ 1.38 µM) and an MIC ([9]; P. aeruginosa isolate no. 1037) of 0.25 µg/mL (≈ 0.692 µM).
In the case of `C[C@@H](O)[C@H]1C(=O)N2C(C(=O)O)=C(S[C@@H]3CN[C@H](C(=O)N(C)C)C3)[C@H](C)[C@H]12` [Meropenem], the MBC range [1] is reported as 0.06 to 0.125 µg/mL, the MIC range [1] is reported as 0.03 to 0.06 µg/mL and the MBC ([1]; E. coli isolate no. 5401) is reported as 0.06 µg/mL (≈ 0.156 µM). The MIC ([1]; E. coli isolate no. 5401) was 0.06 µg/mL (≈ 0.156 µM), the MBC ([1]; E. coli isolate no. 5411) was 0.06 µg/mL (≈ 0.156 µM) and the MIC ([1]; E. coli isolate no. 5411) was 0.06 µg/mL (≈ 0.156 µM). The MBC range [2] was 0.03 to 0.5 µg/mL, the MIC range [2] was 0.03 to 0.25 µg/mL and the MBC ([2]; E. cloacae isolate no. 4073) was 0.5 µg/mL (≈ 1.3 µM). For the same molecule, the MIC ([2]; E. cloacae isolate no. 4073) was 0.25 µg/mL (≈ 0.652 µM), the MBC ([2]; E. cloacae isolate no. 5420) was 0.125 µg/mL (≈ 0.326 µM) and the MIC ([2]; E. cloacae isolate no. 5420) was 0.125 µg/mL (≈ 0.326 µM). The MIC [10] was ≤ 4 µg/mL, the MIC ([11]; S. aureus 2296 (CA-MRSA)) was >16^a^ μg/mL and the MIC ([11]; Staphylococcus aureus, MRSA, S. aureus 2202 (CA-MRSA), read-out: MIC) was 4 µg/mL. For the same molecule, the MIC ([11]; Staphylococcus aureus, MRSA, S. aureus 2296 (CA-MRSA), read-out: MIC) was > 16 µg/mL, the MIC ([12]; P. aeruginosa 2555) was 4 µg/mL and the MIC ([12]; P. aeruginosa 2559) was 0.12 µg/mL. It also gave an MIC ([6]; Klebsiella pneumoniae, K. pneumoniae 1468 (ESBL), read-out: MIC) of 0.06 µg/mL, an MBC range [8, 14] of 0.06 to 0.125 µg/mL and an MIC range [8, 14] of 0.03 to 0.06 µg/mL. The MBC ([8]; K. pneumonia isolate no. 5427) was 0.06 µg/mL (≈ 0.156 µM), the MIC ([8]; K. pneumonia isolate no. 5427) was 0.06 µg/mL (≈ 0.156 µM) and the MBC ([8]; K. pneumonia isolate no. 5436) was 0.06 µg/mL (≈ 0.156 µM). For the same molecule, the MIC ([8]; K. pneumonia isolate no. 5436) was 0.06 µg/mL (≈ 0.156 µM), the MBC range [9, 13] was 0.125 to 32 µg/mL and the MIC range [9, 13] was 0.125 to 16 µg/mL. For the same molecule, the MBC ([9]; P. aeruginosa isolate no. 796) was 2 µg/mL (≈ 5.22 µM), the MIC ([9]; P. aeruginosa isolate no. 796) was 1 µg/mL (≈ 2.61 µM) and the MBC ([9]; P. aeruginosa isolate no. 956) was 2 µg/mL (≈ 5.22 µM). It also gave an MIC ([9]; P. aeruginosa isolate no. 956) of 0.25 µg/mL (≈ 0.652 µM), an MBC ([9]; P. aeruginosa isolate no. 1019) of 2 µg/mL (≈ 5.22 µM) and an MIC ([9]; P. aeruginosa isolate no. 1019) of 1 µg/mL (≈ 2.61 µM). For the same molecule, the MBC ([9]; P. aeruginosa isolate no. 1037) was 1 µg/mL (≈ 2.61 µM) and the MIC ([9]; P. aeruginosa isolate no. 1037) was 0.5 µg/mL (≈ 1.3 µM).
